Data reported in patent publication EP3714904B1, “IMINODIACETIC ACID SUBSTITUTED CYCLODEXTRINS AS POTENTIATORS OF BETA-LACTAM ANTIBIOTICS” (NATIONAL CENTER FOR SCIENTIFIC RESEARCH "DEMOKRITOS" (NCSRD), priority 2019, dated 2020).

System: Klebsiella pneumoniae
Assay: MIC of β-lactams alone or with 50 µM IDACYD against clinical isolates
Format: cell-based
Method: Further the in-vitro inhibitory activity of IDACYDs was tested against highly resistant pathogens. […] Table 2: Collection of clinical isolates used for in-vitro evaluation

[1] = isolate LA-34 (VIM, CMY), first entry of Table 3
[2] = isolate LA-34 (VIM, CMY), second entry of Table 3
[3] = isolate LAR-26I/15 (NDM, VIM, CTXM)
[4] = isolate LAR-37II/15 (NDM, VIM, CTXM)
[5] = isolate LAR-38I/15 (VIM, NDM, CTXM)
[6] = isolate LAR-7547 (NDM, VIM, CTXM)
[7] = isolate TZAN-59 (β-lactamase: None)

CO[C@@H]1[C@@H](OC)[C@H]2O[C@H]3[C@H](OC)[C@@H](OC)[C@@H](O[C@H]4[C@H](OC)[C@@H](OC)[C@@H](O[C@H]5[C@H](OC)[C@@H](OC)[C@@H](O[C@H]6[C@H](OC)[C@@H](OC)[C@@H](O[C@H]7[C@H](OC)[C@@H](OC)[C@@H](O[C@H]8[C@H](OC)[C@@H](OC)[C@@H](O[C@@H]1[C@@H](CN(CC(=O)O)CC(=O)O)O2)O[C@@H]8CN(CC(=O)O)CC(=O)O)O[C@@H]7CN(CC(=O)O)CC(=O)O)O[C@@H]6CN(CC(=O)O)CC(=O)O)O[C@@H]5CN(CC(=O)O)CC(=O)O)O[C@@H]4CN(CC(=O)O)CC(=O)O)O[C@@H]3CN(CC(=O)O)CC(=O)O [β-IDACYD]
64 µg/mL: Meropenem /50µM β-IDACYD MIC (isolate L078/11 (KPC)) | Meropenem /50µM β-IDACYD MIC (isolate LAR-40II/15 (KPC))
1 µg/mL: Meropenem /50µM β-IDACYD MIC (isolate SEC-4 (VIM))
8 µg/mL: Imipenem /50µM β-IDACYD MIC (isolate LA-470/17 (NDM))
0.125 µg/mL: Imipenem /50µM β-IDACYD MIC [3]
0.5 µg/mL: Imipenem /50µM β-IDACYD MIC (isolate IT-17829 (CTXM, SHV)) | Meropenem /50µM β-IDACYD MIC (isolate LA-38 (NDM)) | Meropenem /50µM β-IDACYD MIC [3] | Imipenem /50µM β-IDACYD MIC [7] | Meropenem /50µM β-IDACYD MIC [7]
32 µg/mL: Meropenem /50µM β-IDACYD MIC (isolate IT-17829 (CTXM, SHV)) | Ceftazidime/ 50µM β-IDACYD MIC (isolate LA-28 (NDM, CTXM)) | Ceftazidime/ 50µM β-IDACYD MIC (isolate LA-82/16 (VIM, SHV)) | Ceftazidime/ 50µM β-IDACYD MIC (isolate LA-109/16 (VIM, CTXM)) | Meropenem /50µM β-IDACYD MIC (isolate LA-470/17 (NDM)) | Ceftazidime/ 50µM β-IDACYD MIC (isolate LAR-4011/15)
<0.25 µg/mL: Meropenem /50µM β-IDACYD MIC (isolate ESDY-5742 (IMP)) | Meropenem /50µM β-IDACYD MIC (isolate LA-26 (NDM)) | Meropenem /50µM β-IDACYD MIC (isolate LA-27 (NDM, CTXM)) | Meropenem /50µM β-IDACYD MIC (isolate LA-28 (NDM, CTXM)) | Meropenem /50µM β-IDACYD MIC (isolate LA-109/16 (VIM, CTXM)) | Meropenem /50µM β-IDACYD MIC (isolate LA-419/16 (NDM,CTXM)) | Meropenem /50µM β-IDACYD MIC [4] | Meropenem /50µM β-IDACYD MIC [5] | Meropenem /50µM β-IDACYD MIC (isolate LAR-2873 (VIM-12)) | Ceftazidime/ 50µM β-IDACYD MIC (isolate UoA 12/227 (VIM)) | Meropenem /50µM β-IDACYD MIC (isolate UoA 12/227 (VIM)) | Ceftazidime/ 50µM β-IDACYD MIC (isolate UoA 1995 (VIM)) | Meropenem /50µM β-IDACYD MIC (isolate UoA 1995 (VIM))
4 µg/mL: Meropenem /50µM β-IDACYD MIC (isolate EY-20S (CMY, SHV)) | Imipenem /50µM β-IDACYD MIC [6]
2 µg/mL: Imipenem /50µM β-IDACYD MIC (isolate EY-20S (CMY, SHV)) | Imipenem /50µM β-IDACYD MIC (isolate SEC-2 (VIM)) | Meropenem /50µM β-IDACYD MIC (isolate SEC-2 (VIM)) | Imipenem /50µM β-IDACYD MIC (isolate SEC-4 (VIM))
16 µg/mL: Imipenem /50µM β-IDACYD MIC (isolate L078/11 (KPC)) | Imipenem /50µM β-IDACYD MIC (isolate LAR-40II/15 (KPC)) | Meropenem /50µM β-IDACYD MIC [6]
0.25 µg/mL: Meropenem /50µM β-IDACYD MIC [1] | Imipenem /50µM β-IDACYD MIC [2] | Meropenem /50µM β-IDACYD MIC [2] | Meropenem /50µM β-IDACYD MIC (isolate LA-82/16 (VIM, SHV))
<0.5 µg/mL: Imipenem /50µM β-IDACYD MIC [1]
<0.125 µg/mL: Imipenem /50µM β-IDACYD MIC (isolate LA-26 (NDM)) | Imipenem /50µM β-IDACYD MIC (isolate LA-27 (NDM, CTXM)) | Imipenem /50µM β-IDACYD MIC (isolate LA-28 (NDM, CTXM)) | Imipenem /50µM β-IDACYD MIC (isolate LA-38 (NDM)) | Imipenem /50µM β-IDACYD MIC (isolate LA-82/16 (VIM, SHV)) | Imipenem /50µM β-IDACYD MIC (isolate LA-109/16 (VIM, CTXM)) | Imipenem /50µM β-IDACYD MIC (isolate LA-419/16 (NDM,CTXM)) | Imipenem /50µM β-IDACYD MIC [4] | Imipenem /50µM β-IDACYD MIC [5] | Imipenem /50µM β-IDACYD MIC (isolate LAR-2873 (VIM-12)) | Imipenem /50µM β-IDACYD MIC (isolate UoA 12/227 (VIM)) | Imipenem /50µM β-IDACYD MIC (isolate UoA 1995 (VIM))
